Measured values taken from PMC8772704, “Quantification of Fosfomycin in Combination with Nine Antibiotics in Human Plasma and Cation-Adjusted Mueller-Hinton II Broth via LCMS” (Antibiotics, 2022).

Experiments:
[1] = Long-term storage stability of antibiotics in combination with fosfomycin spiked in plasma/CAMHB (−30 °C, −80 °C); type: physicochemical; conditions: for Mean accuracy (%), Table S15 / Mean accuracy (%), Table S17 / Mean accuracy (%), Table S16 / Mean accuracy (%), Table S18: CAMHB; for Mean accuracy (%), Table S15 / Mean accuracy (%), Table S17 / Mean accuracy (%), Table S16 / Mean accuracy (%), Table S18 / Mean accuracy (%), Table S11 / Mean accuracy (%), Table S13 / Mean accuracy (%), Table S12 / Mean accuracy (%), Table S14: combination with fosfomycin; for Mean accuracy (%), Table S15 / Mean accuracy (%), Table S11: 2 weeks at -30 °C; for Mean accuracy (%), Table S17 / Mean accuracy (%), Table S13: 2 weeks at -80 °C; for Mean accuracy (%), Table S16 / Mean accuracy (%), Table S12: 4 weeks at -30 °C; for Mean accuracy (%), Table S18 / Mean accuracy (%), Table S14: 4 weeks at -80 °C; for Mean accuracy (%), Table S11 / Mean accuracy (%), Table S13 / Mean accuracy (%), Table S12 / Mean accuracy (%), Table S14: plasma
Procedure: (§1) The stability of fosfomycin in combination with other antibiotics in plasma/CAMHB was evaluated under various operational conditions. Spiked plasma/CAMHB samples were evaluated at 7 h and 15 h in the autosampler at 4 °C. Long-term stability was evaluated up to 4 weeks of antibiotic-spiked plasma/CAMHB samples at LQC, MQC, and HQC concentrations stored at −30 °C and −80 °C.

[2] = 32-day stability of stock solutions stored at −80 °C; type: physicochemical; conditions: stock solution stored at -80 °C; peak area Day 32 vs Day 1
Procedure: Stability of stock solutions
All stock solutions of antibiotics and their corresponding stable-isotope variants were measured prior to cold storage at -80 °C and tested at 32 days later.
Stability was determined by comparing the peak area of each drug between its Day 1 and Day 32 measurement. Acceptable criteria for stability was met if the […]

[3] = Autosampler stability at 4 °C of extracted antibiotic-spiked plasma/CAMHB samples; conditions: for Mean accuracy (%), Table S8 / Mean accuracy (%), Table S10: CAMHB extracted samples; for Mean accuracy (%), Table S8 / Mean accuracy (%), Table S7: 7 h autosampler 4 °C; for Mean accuracy (%), Table S10 / Mean accuracy (%), Table S9: 15 h autosampler 4 °C; for Mean accuracy (%), Table S7 / Mean accuracy (%), Table S9: plasma extracted samples
Procedure: as §1

[4] = Plasma concentrations in four patients on fosfomycin-based combination therapy (pilot clinical feasibility study, LCMS/MS)
Procedure: For 20 µL of plasma/CAMHB sample, 20 µL of water and 20 µL of stable-isotope as internal standard (IS) were added and vortexed. 180 µL of acetonitrile was added for protein precipitation and subsequently removed by centrifugation (12,700 rpm for 10 min at 25 °C). Finally, 15 µL of the supernatant was diluted with 225 µL formic acid in water (0.1% v/v), and 10 µL was injected for LCMS/MS analysis. For the calibration curve and QCs, 20 µL of the corresponding antibiotic standard working solution was added instead of water.
Samples were analyzed using a Nexera X2 LCMS 8060 system (Shimadzu, Kyoto, Japan). […] Electrospray ionization employing positive and negative ion mode with multiple reaction monitoring was used for analyte quantification (Table S1). Data were acquired and analyzed using Shimadzu LabSolutions (Version 5.97).
The assay method described in this paper has been applied to a pilot clinical feasibility study to evaluate the proportion of patients with sub-optimal β-lactam levels and the need for dose adjustments in infected patients with unpredictable pharmacokinetics. We described a case series of four patients where they received in vitro guided antibiotic combination therapy using a fosfomycin-based combination regimen to treat a carbapenem-resistant Gram-negative bacteria infection. These four patients were recruited into the BLAST-2 study as the combination regimen contains a β-lactam antibiotic. In this case series, two were undergoing intermittent hemodialysis, and two patients had normal renal function. In the two patients on hemodialysis, they were on a dosing regimen of 8 g of fosfomycin on dialysis days (3 g at least 4 h before dialysis session and 5 g after completion of dialysis). The remaining two patients received 8 g of fosfomycin given every 8 h as a prolonged infusion.
Blood samples (2–3 mL from an indwelling catheter) were collected four times over a dosing interval of the β-lactam dosing regimen and centrifuged (10 min at 3000 rpm) (Eppendorf 5425R). The resultant plasma was stored (within 15 min of collection) at −80 °C until assay.

[5] = HQC: nominal mg/L CAZ 150, FEP 200, PIP 250, ATM 300, MEM 200, DOR 175, LVX 30, CEFT 250, TZB 87.5, TGC 20, AVI 30, FOF 1000
[6] = LQC: nominal 1 mg/L (levofloxacin, avibactam 0.5; fosfomycin 10)
[7] = MQC: nominal mg/L CAZ 75, FEP 100, PIP 150, ATM 150, MEM 100, DOR 87.5, LVX 15, CEFT 125, TZB 43.75, TGC 10, AVI 15, FOF 500

SMILES	Mean accuracy (%), Table S17 ([1]; HQC (nominal as E15)) [%]	Mean accuracy (%), Table S17 ([1]; LQC (nominal as E13)) [%]	Mean accuracy (%), Table S17 ([1]; MQC (nominal as E14)) [%]	Mean accuracy (%), Table S16 ([1]; HQC (nominal as E15)) [%]	Mean accuracy (%), Table S16 ([1]; LQC (nominal as E13)) [%]	Mean accuracy (%), Table S16 ([1]; MQC (nominal as E14)) [%]	Mean accuracy (%), Table S18 ([1]; HQC (nominal as E15)) [%]	Mean accuracy (%), Table S18 ([1]; LQC (nominal as E13)) [%]	Mean accuracy (%), Table S18 ([1]; MQC (nominal as E14)) [%]	Mean accuracy (%), Table S11 ([1]; HQC (nominal as E15)) [%]	Mean accuracy (%), Table S11 ([1]; LQC (nominal as E13)) [%]	Mean accuracy (%), Table S11 ([1]; MQC (nominal as E14)) [%]	Mean accuracy (%), Table S13 ([1]; HQC (nominal as E15)) [%]	Mean accuracy (%), Table S13 ([1]; LQC (nominal as E13)) [%]	Mean accuracy (%), Table S13 ([1]; MQC (nominal as E14)) [%]	Mean accuracy (%), Table S12 ([1]; HQC (nominal as E15)) [%]	Mean accuracy (%), Table S12 ([1]; LQC (nominal as E13)) [%]	Mean accuracy (%), Table S12 ([1]; MQC (nominal as E14)) [%]	Mean accuracy (%), Table S14 ([1]; HQC (nominal as E15)) [%]	Mean accuracy (%), Table S14 ([1]; LQC (nominal as E13)) [%]	also measured
C[C@@H]1O[C@@H]1P(=O)(O)O [Fosfomycin, fosfomycin]	96.3	110.6	99.5	94.6	103.6	95.4	101.8	104.7	98.2	98.4	102.2	92.1	95.6	101.8	94.6	94.0	104.5	92.4	97.7	100.8	Mean accuracy (%), Table S15 ([1]; HQC (nominal as E15)): 98.5%; Mean accuracy (%), Table S15 ([1]; LQC (nominal as E13)): 103.1%; Mean accuracy (%), Table S15 ([1]; MQC (nominal as E14)): 94.7%; Mean accuracy (%), Table S14 ([1]; MQC (nominal as E14)): 90.6%; 32 Day Stability (%) [2]: 95.80%; Mean accuracy (%), Table S8 ([3]; HQC (nominal as E15)): 96.0%; Mean accuracy (%), Table S8 ([3]; LQC (nominal as E13)): 107.1%; Mean accuracy (%), Table S8 ([3]; MQC (nominal as E14)): 95.9%; Mean accuracy (%), Table S10 ([3]; HQC (nominal as E15)): 95.6%; Mean accuracy (%), Table S10 ([3]; LQC (nominal as E13)): 107.4%; Mean accuracy (%), Table S10 ([3]; MQC (nominal as E14)): 94.8%; Mean accuracy (%), Table S7 [3, 5]: 102.9%; Mean accuracy (%), Table S7 [3, 6]: 104.5%; Mean accuracy (%), Table S7 [3, 7]: 101.0%; Mean accuracy (%), Table S9 ([3]; HQC (nominal as E15)): 101.4%; Mean accuracy (%), Table S9 ([3]; LQC (nominal as E13)): 106.3%; Mean accuracy (%), Table S9 ([3]; MQC (nominal as E14)): 101.8%; Mean total plasma concentration (range) ([4]; four patients, samples measured in triplicates): 11.3 to 746.9 mg/L
C[C@@H](O)[C@H]1C(=O)N2C(C(=O)O)=C(S[C@@H]3CN[C@H](C(=O)N(C)C)C3)[C@H](C)[C@H]12 [Meropenem, meropenem]	99.6	104.3	97.3	66.1	60.1	63.5	97.4	97.9	95.4	93.3	86.6	89.7	105.4	104.2	95.0	91.8	106.1	93.8	96.1	101.8	Stability verdict (within ±15% of nominal) ([1]; CAMHB samples stored at −30 °C, 4 weeks): instability; Mean accuracy (%), Table S14 ([1]; MQC (nominal as E14)): 95.2%; 32 Day Stability (%) [2]: 100.48%; Mean accuracy (%), Table S8 ([3]; HQC (nominal as E15)): 107.7%; Mean accuracy (%), Table S8 ([3]; LQC (nominal as E13)): 104.0%; Mean accuracy (%), Table S8 ([3]; MQC (nominal as E14)): 102.6%; Mean accuracy (%), Table S10 ([3]; HQC (nominal as E15)): 106.9%; Mean accuracy (%), Table S10 ([3]; LQC (nominal as E13)): 107.7%; Mean accuracy (%), Table S10 ([3]; MQC (nominal as E14)): 100.8%; Mean accuracy (%), Table S7 [3, 5]: 99.6%; Mean accuracy (%), Table S7 [3, 6]: 110.0%; Mean accuracy (%), Table S7 [3, 7]: 95.5%; Mean accuracy (%), Table S9 ([3]; HQC (nominal as E15)): 97.9%; Mean accuracy (%), Table S9 ([3]; LQC (nominal as E13)): 109.1%; Mean accuracy (%), Table S9 ([3]; MQC (nominal as E14)): 98.9%; Mean total plasma concentration (range) ([4]; Patient 004, meropenem 2 g every 8 h as a 3-h infusion): 6.7 to 23.0 mg/L
